Here are results for two compounds from patent US20250115612A1, “CERTAIN 2,5-DIAZABICYCLO[4.2.0]OCTANES AND OCTAHYDROFURO[3,4-B]PYRAZINES AS GLP-1 RECEPTOR MODULATORS” (ASTRAZENECA AB, priority 2021, published 2025).

One experiment has as its target T1, human GLP-1R receptor (Homo sapiens, UniProt P43220, L260F).
T1 construct: expressed in transfected cells; host or cells: CHO-K1 (ATCC CCL-61)
The experiment can be described thus: CHOK1 GLP-1R cAMP assay (HTRF). It counts as cell-based. The note with it: CHO-K1 cells stably expressing human GLP-1R. In a few lines:
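Cells were CHO-K1 stably expressing human GLP-1R (Leu260Phe variant), at 800 cells/well in HEPES pH 7.4/HBSS/0.1% BSA with IBMX, stimulated 20 min at rt. cAMP was measured by competitive HTRF and converted via a standard curve. EC50 came from a 4-parameter logistic fit, with % effect relative to a saturating GLP-1(7-36)NH2 concentration.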

In experiment [1] the target is T2, human phosphodiesterase-3A (Homo sapiens, UniProt Q14432).
T2 construct: host or cells: Sf9 (Spodoptera frugiperda)
The experiment can be described thus: PDE3 assay (formation of 5'AMP from cAMP, SPA). The note with it: human recombinant enzyme expressed in Sf9 cells. In kind it is biochemical. How it is done:
Evaluation of the effects of compounds on the activity of the human phosphodiesterase-3A is quantified by measuring the formation of 5′AMP from cAMP using a human recombinant enzyme expressed in a clonal isolate of Spodoptera frugiperda cells (Sf9) cells.
The test compound, reference compound or water (control) are added to a buffer containing 40 mM tris(hydroxymethyl)aminomethane (Tris)/HCl (pH 7.4) and 8 mM MgCl2, 450 nMcAMP and 0.25 μCi [3H]cAMP.
Thereafter, the reaction is initiated by addition of the enzyme (about 1 U) and the mixture is incubated for 20 min at 22° C.
For basal control measurements, the enzyme is omitted from the reaction mixture.
Following incubation SPA beads are added. After 30 min at 22° C. under shaking, the amount of [^3H]5′AMP is quantified with a scintillation counter (Topcount, Packard).
The results are expressed as a percent inhibition of the control enzyme activity. The standard inhibitory reference compound is milrinone (CAS number 78415-72-2), which is tested in each experiment at several concentrations to obtain an inhibition curve from which its IC50 value is calculated.

The target of another experiment is T3, GLP-1R (Homo sapiens, UniProt P43220).
T3 construct: host or cells: EndoC-βH1
The experiment can be described thus: EndoC cAMP accumulation assay (HTRF, EndoC-βH1 cells). It counts as cell-based. The settings on record: EndoC-βH1 human pancreatic β cell line. In a few lines:
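Thawed cryopreserved EndoC-βH1 cells, about 3000 per well, were stimulated for 30 min at room temperature. Buffer was HBSS with 25 mM HEPES pH 7.4, 0.1% BSA and 0.5 mM IBMX. cAMP was measured by competitive HTRF after 1 h lysis/detection (590/660 nm). Four-parameter fits gave % activation between basal and maximal GIP (82.5 nM) signal.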

T3 sequence (P43220 24-463): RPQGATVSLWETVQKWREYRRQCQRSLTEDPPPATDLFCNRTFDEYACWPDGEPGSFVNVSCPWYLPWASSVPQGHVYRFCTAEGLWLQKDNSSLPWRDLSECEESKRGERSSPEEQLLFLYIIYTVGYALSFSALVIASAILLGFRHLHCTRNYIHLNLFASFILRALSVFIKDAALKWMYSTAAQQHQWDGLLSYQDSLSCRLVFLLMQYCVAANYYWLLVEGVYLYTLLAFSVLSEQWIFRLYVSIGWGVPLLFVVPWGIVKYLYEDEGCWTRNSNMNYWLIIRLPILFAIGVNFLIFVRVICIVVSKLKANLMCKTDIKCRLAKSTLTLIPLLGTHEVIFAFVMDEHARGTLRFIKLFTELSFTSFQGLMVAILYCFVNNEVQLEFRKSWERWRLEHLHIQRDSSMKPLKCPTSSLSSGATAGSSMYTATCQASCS
T1 sequence (P43220 24-463 L260F): as the sequence (P43220 24-463) above, with L237F counted along it
T2 sequence (Q14432 whole entry): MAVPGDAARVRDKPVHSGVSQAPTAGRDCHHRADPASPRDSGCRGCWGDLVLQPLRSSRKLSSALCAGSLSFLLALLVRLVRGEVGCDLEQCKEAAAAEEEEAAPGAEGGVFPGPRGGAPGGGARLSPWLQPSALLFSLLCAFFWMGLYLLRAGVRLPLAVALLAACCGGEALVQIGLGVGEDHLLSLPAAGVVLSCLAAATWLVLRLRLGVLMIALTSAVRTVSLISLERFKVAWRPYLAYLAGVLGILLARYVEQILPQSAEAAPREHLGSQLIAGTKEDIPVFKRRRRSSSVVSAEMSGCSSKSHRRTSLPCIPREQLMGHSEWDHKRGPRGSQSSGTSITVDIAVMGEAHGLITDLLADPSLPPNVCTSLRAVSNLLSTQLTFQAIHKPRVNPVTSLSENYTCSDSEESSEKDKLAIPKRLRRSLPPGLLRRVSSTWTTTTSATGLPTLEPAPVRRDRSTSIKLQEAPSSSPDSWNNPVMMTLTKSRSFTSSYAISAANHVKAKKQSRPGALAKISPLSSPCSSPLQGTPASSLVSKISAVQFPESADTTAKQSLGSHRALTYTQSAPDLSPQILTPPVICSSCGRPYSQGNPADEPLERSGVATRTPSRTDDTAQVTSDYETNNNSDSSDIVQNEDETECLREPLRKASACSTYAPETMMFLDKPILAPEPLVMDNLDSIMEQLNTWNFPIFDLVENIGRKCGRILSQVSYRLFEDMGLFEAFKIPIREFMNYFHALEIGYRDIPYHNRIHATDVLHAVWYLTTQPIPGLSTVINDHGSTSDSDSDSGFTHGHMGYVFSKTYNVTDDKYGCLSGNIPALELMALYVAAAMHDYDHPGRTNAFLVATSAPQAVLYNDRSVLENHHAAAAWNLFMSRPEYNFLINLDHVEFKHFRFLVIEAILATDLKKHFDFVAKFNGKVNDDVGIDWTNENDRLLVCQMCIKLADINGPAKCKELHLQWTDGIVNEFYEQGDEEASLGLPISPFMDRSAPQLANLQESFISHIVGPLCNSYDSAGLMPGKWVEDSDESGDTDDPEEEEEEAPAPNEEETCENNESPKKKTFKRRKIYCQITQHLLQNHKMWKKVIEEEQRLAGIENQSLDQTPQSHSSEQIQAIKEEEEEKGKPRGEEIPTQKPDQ

As to `COc1cc(C(=O)O)cc2c1nc(CN1CCN(c3cccc(OCc4ccc(Cl)cc4F)n3)[C@@H]3COC[C@@H]31)n2C[C@@H]1CCO1` (single isomer, unassigned) [Example 16a, 2-(((4aR*,7aS*)-4-(6-((4-Chloro-2-fluorobenzyl)oxy)pyridin-2-yl)hexahydrofuro[3,4-b]pyrazin-1(2H)-yl)methyl)-4-methoxy-1-(((S)-oxetan-2-yl)methyl)-1H-benzo[d]imidazole-6-carboxylic acid], the EC50 on human GLP-1R receptor was 0.63 nM; at GLP-1R, 1.9 nM. Further, in experiment [1], the IC50 turned out to be 29000 nM.
The like results for `O=C(O)c1cc(F)c2nc(CN3CCN(c4cccc(OCc5ccc(Cl)cc5F)n4)[C@@H]4COC[C@@H]43)n(C[C@@H]3CCO3)c2c1` (single isomer, unassigned) [Example 19a, 2-(((4aR*,7aS*)-4-(6-((4-Chloro-2-fluorobenzyl)oxy)pyridin-2-yl)hexahydrofuro[3,4-b]pyrazin-1(2H)-yl)methyl)-4-fluoro-1-(((S)-oxetan-2-yl)methyl)-1H-benzo[d]imidazole-6-carboxylic acid] were, in that order, 1.5 nM, 4 nM and 22000 nM.
